Measured values published in US11998013B1, “1-(morpholin-4-yl)-3-(naphthalen-2-yloxy)propan-2-ol as an eco-friendly insecticidal agent against spodoptera littoralis (boisd.)” (priority 2023, dated 2024).
≈ marks a conversion by molar mass, not a printed value.

System: Spodoptera littoralis
Test: Insecticidal bioassay screening (castor leaf dip, larval mortality)
Type: in vivo
Conditions: for Toxic ratio: 72 h, fenoxycarb's LC50 / compound's LC50 × 100
Protocol: Five concentrations (200, 100, 50, 25, 12.5 ppm) were designed for this synthetic compound and the reference fenoxycarb compound as the dynamic ingredients based on ppm via diluting the commercial formulation.
In this experiment, castor leaves are immersed in each of the previously prepared concentrations of the components for 10 seconds and then left to dry for 60 minutes. Larvae of the second and fourth instars of each checked strain are prepared with treated leaves in gauze-covered glass containers for 72 hrs. An untreated control is made in which leaves are dipped in triton x-100 and distilled water only. Then the preserved leaves were removed & fresh, untreated leaves were provided for 72 hours. Three replicates (10 larvae each) were checked for each concentration. Daily inspection was carried out for all treatments and mortality percentages were recorded 3 days (72 hours) after treatment. The average mortality percentage was corrected employing Abbott's formula. The corrected mortality rate for each of the previously synthesized compounds is statistically calculated according to Finney (1970). Through this rate, the corresponding concentration test lines (LDP lines) are assessed. Fifty and ninety percent mortality are determined, and the regression values for the checked products were previously evaluated.

Row | SMILES | Toxic ratio (2nd instar larvae) | Toxic ratio (4th instar larvae) | LC50 (Spodoptera littoralis, foliar) [µg/mL] | activity against Spodoptera littoralis (in words) (compared with the reference insecticide fenoxycarb) | LC50 (2nd instar larvae of S. littoralis, after 72 h of treatment, treated castor leaves) [ppm] | LC50 (4th instar larvae of S. littoralis, after 72 h of treatment, treated castor leaves) [ppm]
1 | OC(COc1ccc2ccccc2c1)CN1CCOCC1 (stereo not drawn) [Compound 2, 1-(morpholin-4-yl)-3-(naphthalen-2-yloxy)propan-2-ol] | 15.5 | 62.4 | 17.6 (≈ 61.1 µM) | active against Spodoptera littoralis |  | 
2 | CCOC(=O)NCCOc1ccc(Oc2ccccc2)cc1 [Fenoxycarb, reference compound] | 100 | 1 | 2.73 (≈ 9.06 µM) |  | 2.73 | 43.231
